Laboratory results from patent US20260151379A1, “SALT TYPE AND CRYSTAL FORM OF COMPLEMENT FACTOR B INHIBITOR, AND PREPARATION METHOD THEREFOR AND APPLICATION THEREOF” (SHANGHAI MEIYUE BIOTECH DEVELOPMENT CO., LTD., priority 2022, published 2026).
“And” between values parts separate entries of the source, which are not always exact repeats. Equal values may be shown once. Where a name gives a salt, the structure may show the parent alone. Values belong to the compound of their own block, whether it stands above or below them.

What was measured:
Assay type in all cases: physicochemical
[1] = Stability investigation of crystal form C of monohydrochloride, 1 month (Example 11)
Description: […] The stability of the crystal form was investigated.
Detection method for related substances of the stability sample: about 6 mg of the sample was weighed out and added to a 40 mL clean glass bottle; 10 mL of 50% aqueous acetonitrile solution was added; the sample was dissolved completely by ultrasonication; and 10 μL of the sample was injected for the test of the related substances, as shown in Table 15. The XRPD pattern is shown in FIG. 18, wherein HCl-salt Form 3-initial (hereinafter referred to as initial) represents the XRPD pattern of the crystal form C prepared in Example 8.

[2] = Effect of high temperature and high humidity on crystal form C (Example 12); details: open, 60° C., 80% RH and 92.5% RH, 1 day and 3 days
Excerpt: The sample was separately collected on 1d and 3d for XRPD testing.

[3] = Solubility tests of compound of formula I, mixture of crystal forms A and B, and crystal form C at 37° C. (Example 13)
Description: An appropriate amount of a test sample was weighed out and added to a vial; 3 mL of a medium (water, SGF, FaSSIF, FeSSIF, or the like) was added; the mixture was stirred at 37° C.; […]; centrifugation was performed at 12000 rpm for 10 min; the supernatant was diluted with 50% aqueous acetonitrile solution to an appropriate multiple; and the concentration of the supernatant was determined.
(§1) Control and linearity: 10 mg of the compound of formula I was weighed out and added to a 50 mL volumetric flask, 50% aqueous acetonitrile solution was added for dissolution, and the mixture was diluted to volume. Two parts were prepared in parallel. The control was taken and diluted with 50% aqueous acetonitrile solution to 100 μg/mL, 50 μg/mL, and 10 μg/mL, 5 μL of the sample was injected, and a standard curve was plotted.

[4] = Solubility tests in water, SGF, FaSSIF, FeSSIF at 37° C. (Example 5)
Description: Experimental procedures: 30 mg (in water) or 15 mg of a sample was weighed out and added to a 4 mL vial; 3 mL of a medium to be tested (water, SGF, FaSSIF, or FeSSIF) was added; the mixture was continuously stirred at 37° C.; 0.5 mL of the sample was separately collected at 1 h and 24 h; centrifugation was performed at 12000 rpm for 10 min; the supernatant was diluted with 50% aqueous acetonitrile solution to an appropriate multiple; and the concentration of the supernatant was determined.
as §1, with “control of the compound of formula I” for “control”

[5] = Stability tests of compound of formula I and its monohydrochloride, phosphate and maleate (Example 4); details: for Stability (conclusion in words from Table 7): 40° C./75% RH closed/open and 60° C. closed, 2 wks
Description: The stability of the compound of formula I, the monohydrochloride of the compound of formula I in Example 1, the phosphate of the compound of formula I in Example 2, and the maleate of the compound of formula I in Example 3 were investigated.
Stability investigation conditions: 40° C./75% RH-closed, 40° C./75% RH-open, and 60° C.-closed; stability investigation content: changes in related substances and crystal forms.
Detection of related substances: about 6-7 mg of a sample was separately weighed out and added to a 10 mL volumetric flask; 50% aqueous acetonitrile solution was added for dissolution; the mixture was diluted to volume; and 10 μL of the sample was injected.

[6] = Open storage of crystal form A under acceleration conditions (Example 7); details: 40° C./75% RH, 72 h
Excerpt: The crystal form B is a monohydrate of the monohydrochloride of the compound of formula I.

[7] = Initial, listed as Crystal form C of monohydrochloride of compound of formula I
[8] = pH 6.8 (adjusted with sodium hydroxide solution), 37° C.
[9] = pH 7.4 (adjusted with sodium hydroxide solution), 37° C.
[10] = FaSSIF, listed as Compound of formula I Hydrochloride
[11] = FeSSIF, listed as Compound of formula I Hydrochloride
[12] = SGF, listed as Compound of formula I Hydrochloride
[13] = Water, listed as Compound of formula I Hydrochloride

Structure (SMILES): COc1cc(C)c2[nH]ccc2c1CN1CC[C@H](OCC2CC2)C[C@H]1c1ccc(C(=O)O)cc1 [Compound of formula I Monohydrochloride]
Final pH [4, 10]: 3.83 | Solubility (mg/mL) (1 h) [4, 10]: 0.64 mg/mL | Solubility (mg/mL) (24 h) [4, 10]: 0.39 mg/mL | Final pH [4, 11]: 4.85 | Solubility (mg/mL) (1 h) [4, 11]: 0.74 mg/mL | Solubility (mg/mL) (24 h) [4, 11]: 0.44 mg/mL | Final pH [4, 12]: 1.52 | Solubility (mg/mL) (1 h) [4, 12]: 5.90 mg/mL | Solubility (mg/mL) (24 h) [4, 12]: 5.97 mg/mL | Final pH [4, 13]: 2.49 | Solubility (mg/mL) (1 h) [4, 13]: 11.74 mg/mL | Solubility (mg/mL) (24 h) [4, 13]: 11.14 mg/mL | Stability (conclusion in words from Table 7) ([5]; listed as monohydrochloride): more stable | Appearance ([5]; 40° C./75% RH-closed-2 wks): White powder | Maximum single impurity % ([5]; 40° C./75% RH-closed-2 wks): 0.11% | Purity % ([5]; 40° C./75% RH-closed-2 wks): 99.57% | Total impurity % ([5]; 40° C./75% RH-closed-2 wks): 0.43% | Appearance ([5]; 40° C./75% RH-open-2 wks): White powder | Maximum single impurity % ([5]; 40° C./75% RH-open-2 wks): 0.10% | Purity % ([5]; 40° C./75% RH-open-2 wks): 99.59% | Total impurity % ([5]; 40° C./75% RH-open-2 wks): 0.41% | Appearance ([5]; 60° C.-closed-2 wks): White powder | Maximum single impurity % ([5]; 60° C.-closed-2 wks): 0.13% | Purity % ([5]; 60° C.-closed-2 wks): 99.59% | Total impurity % ([5]; 60° C.-closed-2 wks): 0.41% | Appearance ([5]; Initial): White powder | Maximum single impurity % ([5]; Initial): 0.14% | Purity % ([5]; Initial): 99.59% | Total impurity % ([5]; Initial): 0.41%

Structure (SMILES): COc1cc(C)c2[nH]ccc2c1CN1CCC(OCC2CC2)CC1c1ccc(C(=O)O)cc1.O=C(O)C=CC(=O)O (stereo not shown) [Compound of formula I Maleate]
Stability (conclusion in words from Table 7) [5]: stable | Appearance ([5]; 40° C./75% RH-closed-2 wks): White powder | Maximum single impurity % ([5]; 40° C./75% RH-closed-2 wks): 0.08% | Purity % ([5]; 40° C./75% RH-closed-2 wks): 99.78% | Total impurity % ([5]; 40° C./75% RH-closed-2 wks): 0.22% | Maximum single impurity % ([5]; 40° C./75% RH-open-2 wks): 0.09% | Purity % ([5]; 40° C./75% RH-open-2 wks): 99.64% | Total impurity % ([5]; 40° C./75% RH-open-2 wks): 0.36% | Appearance ([5]; 60° C.-closed-2 wks): White powder | Maximum single impurity % ([5]; 60° C.-closed-2 wks): 0.09% | Purity % ([5]; 60° C.-closed-2 wks): 99.69% | Total impurity % ([5]; 60° C.-closed-2 wks): 0.31% | Appearance ([5]; Initial): White powder | Maximum single impurity % ([5]; Initial): 0.08% | Purity % ([5]; Initial): 99.80% | Total impurity % ([5]; Initial): 0.20%

Structure (SMILES): COc1cc(C)c2[nH]ccc2c1CN1CCC(OCC2CC2)CC1c1ccc(C(=O)O)cc1.O=P(O)(O)O (stereo not shown) [Compound of formula I Phosphate]
Final pH ([4]; FaSSIF): 4.76 | Solubility (mg/mL) (1 h) ([4]; FaSSIF): 0.45 mg/mL | Solubility (mg/mL) (24 h) ([4]; FaSSIF): 0.27 mg/mL | Final pH ([4]; FessIF): 4.84 | Solubility (mg/mL) (1 h) ([4]; FessIF): 0.64 mg/mL | Solubility (mg/mL) (24 h) ([4]; FessIF): 0.40 mg/mL | Final pH ([4]; SGF): 1.61 | Solubility (mg/mL) (1 h) ([4]; SGF): 5.35 mg/mL | Solubility (mg/mL) (24 h) ([4]; SGF): 5.55 mg/mL | Final pH ([4]; Water): 2.53 | Solubility (mg/mL) (1 h) ([4]; Water): 8.07 mg/mL | Solubility (mg/mL) (24 h) ([4]; Water): 6.24 mg/mL | Stability (conclusion in words from Table 7) [5]: stable | Appearance ([5]; 40° C./75% RH-closed-2 wks): White powder | Maximum single impurity % ([5]; 40° C./75% RH-closed-2 wks): 0.09% | Purity % ([5]; 40° C./75% RH-closed-2 wks): 99.63% | Total impurity % ([5]; 40° C./75% RH-closed-2 wks): 0.37% | Appearance ([5]; 40° C./75% RH-open-2 wks): White powder | Maximum single impurity % ([5]; 40° C./75% RH-open-2 wks): 0.09% | Purity % ([5]; 40° C./75% RH-open-2 wks): 99.64% | Total impurity % ([5]; 40° C./75% RH-open-2 wks): 0.36% | Appearance ([5]; 60° C.-closed-2 wks): White powder | Maximum single impurity % ([5]; 60° C.-closed-2 wks): 0.08% | Purity % ([5]; 60° C.-closed-2 wks): 99.62% | Total impurity % ([5]; 60° C.-closed-2 wks): 0.38% | Appearance ([5]; Initial): White powder | Maximum single impurity % ([5]; Initial): 0.07% | Purity % ([5]; Initial): 99.75% | Total impurity % ([5]; Initial): 0.25%

Second part, led by results:

Chemical stability (in words) ([1]; 40° C./75% RH and 60° C. for 1 month): good chemical stability | Maximum single impurity % ([1]; 40° C./75% RH-closed-1 M): 0.29% | Purity % ([1]; 40° C./75% RH-closed-1 M): 99.58% | Total impurity % ([1]; 40° C./75% RH-closed-1 M): 0.42% | Maximum single impurity % ([1]; 40° C.75% RH-open-1 M): 0.27% | Purity % ([1]; 40° C.75% RH-open-1 M): 99.60% | Total impurity % ([1]; 40° C.75% RH-open-1 M): 0.40% | Maximum single impurity % ([1]; 60° C.-closed-1 M): 0.32% | Purity % ([1]; 60° C.-closed-1 M): 99.56% | Total impurity % ([1]; 60° C.-closed-1 M): 0.44% | Appearance ([1]; Initial): White powder | Maximum single impurity % [1, 7]: 0.65% and 0.96% | Purity % [1, 7]: 99.17% and 98.88% | Total impurity % [1, 7]: 0.83% and 1.12% | Crystal form by XRPD after storage (FIG. 18) ([1]; acceleration and high temperature conditions, 1 month): not changed | Crystal form by XRPD after exposure (FIGS. 19 and 20) [2]: not changed | Final pH ([3]; FaSSIF, 37° C.): 3.27 | solubility at 1 h ([3]; FaSSIF, 37° C.): 1.16 mg/mL | solubility at 24 h ([3]; FaSSIF, 37° C.): 0.88 mg/mL | Final pH ([3]; FessIF, 37° C.): 4.83 | solubility at 1 h ([3]; FessIF, 37° C.): 0.64 mg/mL | solubility at 24 h ([3]; FessIF, 37° C.): 0.42 mg/mL | Final pH ([3]; SGF, 37° C.): 1.26 | solubility at 1 h ([3]; SGF, 37° C.): 0.94 mg/mL | solubility at 24 h ([3]; SGF, 37° C.): 0.79 mg/mL | Final pH ([3]; Water, 37° C.): 2.49 | solubility at 1 h ([3]; Water, 37° C.): 8.32 mg/mL | solubility at 24 h ([3]; Water, 37° C.): 7.54 mg/mL | Solubility at 1 h (mg/mL) [3, 8]: 0.56(1 h) mg/mL | Solubility (mg/mL) (48 h) [3, 8]: 0.21(48 h) mg/mL | Final pH ([3]; pH 6.8, 37° C., 1 h line): 6.65 | Final pH ([3]; pH 6.8, 37° C., 48 h line): 6.82 | Solubility at 1 h (mg/mL) [3, 9]: 0.45(1 h) mg/mL | Solubility (mg/mL) (48 h) [3, 9]: 0.24(48 h) mg/mL | Final pH ([3]; pH 7.4, 37° C., 1 h line): 7.23 | Final pH ([3]; pH 7.4, 37° C., 48 h line): 7.42
Structure (SMILES): COc1cc(C)c2[nH]ccc2c1CN1CCC(OCC2CC2)CC1c1ccc(C(=O)O)cc1.Cl (stereo not shown) [Crystal form C]
Solubility in water compared to mixture of crystal forms A and B (in words) ([3]; Water, 37° C.): reduced solubility in water compared to the mixture of crystal forms A and B

Crystal form after open storage [6]: transformed into crystal form B
Structure (SMILES): COc1cc(C)c2[nH]ccc2c1CN1CCC(OCC2CC2)CC1c1ccc(C(=O)O)cc1.Cl (stereo not shown) [Crystal form A]
